Results reported in patent publication US9260439B2, “Dihydropyrrolopyrimidine derivatives” (PFIZER INC., priority 2014, dated 2016).
Structures can show the parent of a compound that is named as a salt.

Target: truncated PI3Kα (p110α/iSH2 p85α) (Homo sapiens (Human), UniProt P42336)
Assay: PI3KA_Act fluorescence polarization kinase assay (Ki)
Assay type: biochemical
Conditions: 1 mM ATP
Outline: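 p110α/iSH2 p85α (0.5 nM) was reacted with 30 μM sonicated PIP2 in 50 mM HEPES pH 7.4, 150 mM NaCl, 5 mM MgCl2, 1 mM DTT and 0.05% CHAPS for 30 min at room temperature, then stopped with EDTA. PIP3 was detected by fluorescence polarization (GST-Grp1 PH domain/TAMRA-PIP3), and Ki came from a Morrison tight-binding fit.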

Chain of truncated PI3Kα (p110α/iSH2 p85α) (P42336 whole entry, the tested form may be a part): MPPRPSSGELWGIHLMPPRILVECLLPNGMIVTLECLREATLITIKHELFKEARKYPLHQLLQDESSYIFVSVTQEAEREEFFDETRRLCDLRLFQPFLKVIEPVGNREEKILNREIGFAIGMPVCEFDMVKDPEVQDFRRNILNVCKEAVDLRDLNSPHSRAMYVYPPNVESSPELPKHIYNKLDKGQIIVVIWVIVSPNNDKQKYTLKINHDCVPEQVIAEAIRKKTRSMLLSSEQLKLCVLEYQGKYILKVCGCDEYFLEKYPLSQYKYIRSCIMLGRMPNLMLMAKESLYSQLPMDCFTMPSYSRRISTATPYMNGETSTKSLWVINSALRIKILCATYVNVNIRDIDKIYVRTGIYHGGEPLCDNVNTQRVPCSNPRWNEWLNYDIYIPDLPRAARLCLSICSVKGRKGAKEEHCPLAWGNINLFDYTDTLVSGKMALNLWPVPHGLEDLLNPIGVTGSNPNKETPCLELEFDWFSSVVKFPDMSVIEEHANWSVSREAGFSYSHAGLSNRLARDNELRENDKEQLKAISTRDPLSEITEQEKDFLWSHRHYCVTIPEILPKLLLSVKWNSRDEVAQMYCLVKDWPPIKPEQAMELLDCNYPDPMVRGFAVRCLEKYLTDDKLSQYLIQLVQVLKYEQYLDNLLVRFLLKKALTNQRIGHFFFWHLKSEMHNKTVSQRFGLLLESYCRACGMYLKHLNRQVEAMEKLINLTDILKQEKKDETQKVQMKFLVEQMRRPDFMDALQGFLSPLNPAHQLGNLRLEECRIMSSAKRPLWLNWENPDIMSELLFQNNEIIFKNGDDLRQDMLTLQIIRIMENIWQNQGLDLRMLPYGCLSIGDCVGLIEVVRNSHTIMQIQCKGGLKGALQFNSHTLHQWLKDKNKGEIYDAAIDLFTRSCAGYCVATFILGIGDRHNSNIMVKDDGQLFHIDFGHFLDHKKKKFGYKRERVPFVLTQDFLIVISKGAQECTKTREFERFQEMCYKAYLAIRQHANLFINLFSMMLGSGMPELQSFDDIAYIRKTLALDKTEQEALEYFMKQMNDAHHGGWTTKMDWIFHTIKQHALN

| Compound | PI3KA_Act Ki | Ki |
| --- | --- | --- |
| C[C@@H]1CN(C(=O)OC(C)(C)C)C[C@@]1(C)N1CCc2c(-c3cnc(N)nc3)nc(N3CCOC[C@@H]3C)nc21 [Example 510, tert-butyl (3S,4R)-3-{4-(2-aminopyrimidin-5-yl)-2-[(3S)-3-methylmorpholin-4-yl]-5,6-dihydro-7H-pyrrolo[2,3-d]pyrimidin-7-yl}-3,4-dimethylpyrrolidine-1-carboxylate] | <0.018 nM |  |
| C[C@H]1COCCN1c1nc(-c2cnc(N)nc2)c2c(n1)N([C@@]1(C)CN(C(=O)OC(C)(C)C)C[C@@H]1C)CC2 [Example 511, tert-butyl (3R,4S)-3-{4-(2-aminopyrimidin-5-yl)-2-[(3S)-3-methylmorpholin-4-yl]-5,6-dihydro-7H-pyrrolo[2,3-d]pyrimidin-7-yl}-3,4-dimethylpyrrolidine-1-carboxylate] | 0.915 nM |  |
| C[C@H]1COCCN1c1nc(-c2cnc(N)nc2)c2c(n1)N([C@@]1(C)CCN(C(=O)OC(C)(C)C)C1)CC2 [Example 512, tert-butyl (3S)-3-{4-(2-aminopyrimidin-5-yl)-2-[(3S)-3-methylmorpholin-4-yl]-5,6-dihydro-7H-pyrrolo[2,3-d]pyrimidin-7-yl}-3-methylpyrrolidine-1-carboxylate] | <0.018 nM |  |
| C[C@H]1COCCN1c1nc(-c2cnc(N)nc2)c2c(n1)N([C@@]1(C)CCN(C)C1)CC2 [Example 513, 5-{7-[(3S)-1,3-dimethylpyrrolidin-3-yl]-2-[(3S)-3-methylmorpholin-4-yl]-6,7-dihydro-5H-pyrrolo[2,3-d]pyrimidin-4-yl}pyrimidin-2-amine] | 0.418 nM |  |
| C[C@H]1COCCN1c1nc(-c2cnc(N)nc2)c2c(n1)N(C1(C)CCNCC1)CC2.Cl [Example 516, 5-{2-[(3S)-3-methylmorpholin-4-yl]-7-(4-methylpiperidin-4-yl)-6,7-dihydro-5H-pyrrolo[2,3-d]pyrimidin-4-yl}pyrimidin-2-amine hydrochloride] | 0.346 nM |  |
| C[C@H]1COCCN1c1nc(-c2cnc(N)nc2)c2c(n1)N(C1(C)CCN(C(=O)OC(C)(C)C)CC1)CC2 [Example 519, tert-butyl 4-{4-(2-aminopyrimidin-5-yl)-2-[(3S)-3-methylmorpholin-4-yl]-5,6-dihydro-7H-pyrrolo[2,3-d]pyrimidin-7-yl}-4-methylpiperidine-1-carboxylate] | 0.036 nM |  |
| C[C@H]1COCCN1c1nc(-c2cnc(N)nc2)c2c(n1)N(C1(C)CCCN(C(=O)OC(C)(C)C)C1)CC2 (stereo partly drawn) [Example 520, tert-butyl 3-{4-(2-aminopyrimidin-5-yl)-2-[(3S)-3-methylmorpholin-4-yl]-5,6-dihydro-7H-pyrrolo[2,3-d]pyrimidin-7-yl}-3-methylpiperidine-1-carboxylate] | 0.663 nM |  |
| C[C@H]1COCCN1c1nc(-c2cnc(N)nc2)c2c(n1)N([C@H]1[C@@H]3CN(C(=O)OC(C)(C)C)C[C@@H]31)CC2 [Example 521, tert-butyl (1R,5S,6s)-6-{4-(2-aminopyrimidin-5-yl)-2-[(3S)-3-methylmorpholin-4-yl]-5,6-dihydro-7H-pyrrolo[2,3-d]pyrimidin-7-yl}-3-azabicyclo[3.1.0]hexane-3-carboxylate] | 0.170 nM |  |
| C[C@H]1COCCN1c1nc(-c2cnc(N)nc2)c2c(n1)N([C@H]1[C@@H]3CNC[C@@H]31)CC2.Cl [Example 522, 5-{7-[(1R,5S,6s)-3-azabicyclo[3.1.0]hex-6-yl]-2-[(3S)-3-methylmorpholin-4-yl]-6,7-dihydro-5H-pyrrolo[2,3-d]pyrimidin-4-yl}pyrimidin-2-amine hydrochloride] | 6.845 nM |  |
| C[C@H]1COCCN1c1nc(-c2cnc(N)nc2)c2c(n1)N([C@H]1[C@H]3C[C@@H]1N(C(=O)OC(C)(C)C)C3)CC2 [Example 523, tert-butyl (1S,4S,5S)-5-{4-(2-aminopyrimidin-5-yl)-2-[(3S)-3-methylmorpholin-4-yl]-5,6-dihydro-7H-pyrrolo[2,3-d]pyrimidin-7-yl}-2-azabicyclo[2.1.1]hexane-2-carboxylate] |  | 5.21 nM |
| C[C@H]1COCCN1c1nc(-c2cnc(N)nc2)c2c(n1)N([C@@H]1[C@@H]3C[C@H]1N(C(=O)OC(C)(C)C)C3)CC2 [Example 524, tert-butyl (1R,4R,5R)-5-{4-(2-aminopyrimidin-5-yl)-2-[(3S)-3-methylmorpholin-4-yl]-5,6-dihydro-7H-pyrrolo[2,3-d]pyrimidin-7-yl}-2-azabicyclo[2.1.1]hexane-2-carboxylate] |  | 1.87 nM |
| C[C@H]1COCCN1c1nc(-c2cnc(N)nc2)c2c(n1)N([C@H]1[C@@H]3CN[C@H]1C3)CC2 [Example 525, 5-{7-[(1S,4S,5S)-2-azabicyclo[2.1.1]hex-5-yl]-2-[(3S)-3-methylmorpholin-4-yl]-6,7-dihydro-5H-pyrrolo[2,3-d]pyrimidin-4-yl}pyrimidin-2-amine hydrochloride] |  | 4.5 nM |
| C[C@H]1COCCN1c1nc(-c2cnc(N)nc2)c2c(n1)N([C@@H]1[C@H]3CN[C@@H]1C3)CC2 [Example 526, 5-{7-[(1R,4R,5R)-2-azabicyclo[2.1.1]hex-5-yl]-2-[(3S)-3-methylmorpholin-4-yl]-6,7-dihydro-5H-pyrrolo[2,3-d]pyrimidin-4-yl}pyrimidin-2-amine hydrochloride] |  | 9.43 nM |
| C[C@H]1COCCN1c1nc(-c2cnc(N)nc2)c2c(n1)N([C@@]13C[C@@H]1CN(C(=O)OC(C)(C)C)C3)CC2 [Example 527, tert-butyl (1S,5R)-1-{4-(2-aminopyrimidin-5-yl)-2-[(3S)-3-methylmorpholin-4-yl]-5,6-dihydro-7H-pyrrolo[2,3-d]pyrimidin-7-yl}-3-azabicyclo[3.1.0]hexane-3-carboxylate] | <0.018 nM |  |
| C[C@H]1COCCN1c1nc(-c2cnc(N)nc2)c2c(n1)N([C@]13C[C@H]1CN(C(=O)OC(C)(C)C)C3)CC2 [Example 528, tert-butyl (1R,5S)-1-{4-(2-aminopyrimidin-5-yl)-2-[(3S)-3-methylmorpholin-4-yl]-5,6-dihydro-7H-pyrrolo[2,3-d]pyrimidin-7-yl}-3-azabicyclo[3.1.0]hexane-3-carboxylate] | 0.092 nM |  |
| C[C@H]1COCCN1c1nc(-c2cnc(N)nc2)c2c(n1)N([C@@]13CNC[C@@H]1C3)CC2.Cl [Example 529, 5-{7-[(1R,5S)-3-azabicyclo[3.1.0]hex-1-yl]-2-[(3S)-3-methylmorpholin-4-yl]-6,7-dihydro-5H-pyrrolo[2,3-d]pyrimidin-4-yl}pyrimidin-2-amine hydrochloride] | 0.595 nM |  |
| C[C@H]1COCCN1c1nc(-c2cnc(N)nc2)c2c(n1)N([C@]13CNC[C@H]1C3)CC2.Cl [Example 530, 5-{7-[(1S,5R)-3-azabicyclo[3.1.0]hex-1-yl]-2-[(3S)-3-methylmorpholin-4-yl]-6,7-dihydro-5H-pyrrolo[2,3-d]pyrimidin-4-yl}pyrimidin-2-amine hydrochloride] | 2.624 nM |  |
| tert-butyl (cis-3-{4-(2-aminopyrimidin-5-yl)-2-[(3S)-3-methylmorpholin-4-yl]-5,6-dihydro-7H-pyrrolo[2,3-d]pyrimidin-7-yl}cyclobutyl)methylcarbamate [Example 448] | 0.690 nM |  |
| tert-butyl (trans-3-{4-(2-aminopyrimidin-5-yl)-2-[(3S)-3-methylmorpholin-4-yl]-5,6-dihydro-7H-pyrrolo[2,3-d]pyrimidin-7-yl}cyclobutyl)methylcarbamate [Example 449] | 0.294 nM |  |
